Measurements from US7528153B2, “Deoxynojirimycin analogues and their uses as glucosylceramidase inhibitors” (Genzyme Corporation, priority 2003, dated 2009).

Assays:
Metabolism = details: in vivo
Bioavailability = format: in vivo; details: orally administered
Maltase = assay: In vitro inhibition of intestinal maltase; format: biochemical; details: Table 1
Cellular toxicity = format: cell-based; details: at doses envisioned during therapy
b-Galactosidase = target: T1, b-Galactosidase (Homo sapiens, UniProt P16278); assay: In vitro inhibition of lysosomal b-galactosidase (4-MU substrate, purified enzyme from spleen); format: biochemical; details: Table 3, read-out: Apparent in vitro IC50 value, A b-Galactosidase
T1 construct: measured with appropriate 4-MU substrates using purified enzymes from spleen; from tissue; host or cells: spleen
T1 sequence (P16278 29-677): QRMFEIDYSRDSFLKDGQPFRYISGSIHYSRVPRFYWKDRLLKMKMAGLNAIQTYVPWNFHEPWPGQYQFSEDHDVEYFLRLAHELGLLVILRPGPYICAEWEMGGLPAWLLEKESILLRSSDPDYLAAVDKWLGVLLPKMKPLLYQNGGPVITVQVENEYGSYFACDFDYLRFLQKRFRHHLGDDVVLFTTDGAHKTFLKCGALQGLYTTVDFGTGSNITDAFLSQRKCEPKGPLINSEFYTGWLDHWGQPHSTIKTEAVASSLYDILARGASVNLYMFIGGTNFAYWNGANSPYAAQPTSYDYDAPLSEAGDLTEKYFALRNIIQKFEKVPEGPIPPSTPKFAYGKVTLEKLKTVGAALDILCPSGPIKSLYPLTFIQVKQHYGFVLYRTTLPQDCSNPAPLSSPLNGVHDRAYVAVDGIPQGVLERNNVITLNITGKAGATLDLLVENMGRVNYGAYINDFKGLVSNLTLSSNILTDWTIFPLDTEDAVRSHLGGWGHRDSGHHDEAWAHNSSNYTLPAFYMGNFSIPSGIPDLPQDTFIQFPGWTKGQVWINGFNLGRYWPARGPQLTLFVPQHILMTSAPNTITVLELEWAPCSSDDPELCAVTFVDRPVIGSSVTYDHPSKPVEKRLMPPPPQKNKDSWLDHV

Hexosaminidase = assay: In vitro inhibition of lysosomal hexosaminidase (4-MU substrate, purified enzyme from spleen); format: biochemical; details: Table 3, read-out: Apparent in vitro IC50 value, Hexosaminidase
A-Galactosidase = target: T2, A-Galactosidase (Homo sapiens, UniProt P06280); assay: In vitro inhibition of lysosomal A-galactosidase (4-MU substrate, purified enzyme from spleen); format: biochemical; details: Table 3, read-out: Apparent in vitro IC50 value, A-Galactosidase
T2 construct: measured with appropriate 4-MU substrates using purified enzymes from spleen; from tissue; host or cells: spleen
T2 sequence (P06280 32-429): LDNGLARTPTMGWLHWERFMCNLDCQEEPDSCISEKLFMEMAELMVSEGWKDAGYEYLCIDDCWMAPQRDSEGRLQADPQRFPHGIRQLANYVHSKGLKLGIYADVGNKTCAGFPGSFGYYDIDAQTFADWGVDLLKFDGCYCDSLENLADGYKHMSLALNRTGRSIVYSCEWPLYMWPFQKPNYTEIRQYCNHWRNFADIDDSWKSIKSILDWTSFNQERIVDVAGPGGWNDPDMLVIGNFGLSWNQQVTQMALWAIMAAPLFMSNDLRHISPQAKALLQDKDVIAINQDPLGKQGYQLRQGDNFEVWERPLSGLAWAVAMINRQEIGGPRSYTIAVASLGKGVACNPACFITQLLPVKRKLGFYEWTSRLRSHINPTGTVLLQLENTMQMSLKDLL

MEB4 culture = assay: Pigmentation of MEB4 melanoma culture; format: cell-based, murine; details: inhibition of glycosphingolipid synthesis in MEB4 culture
Source text: Two melanoma cultures, one dark pigmented (An) and the other very lightly pigmented (M14) show a clearly higher content of glucosylceramide (GlcCer) in the darkly pigmented culture both in the total cell extract and in a melanosomal fraction.

human melanocytes = assay: Pigmentation / melanin production in melanocytes; format: cell-based; details: melanocytes of lighter and darker skin type, within a single culture passage
Source text: Iminosugars were designed that harbour optimal features for use in skin. Ceramide and glucosylceramide are important structural components of the stratum corneum and regulate water permeability of the skin. It is known that glucosylceramides together with other polar lipids are secreted into the extracellular space of the stratum corneum by lamellar bodies and are subsequently processed to ceramides. […] Iminosugars should therefore not interfere with the crucial generation of ceramide from glucosylceramide catalysed by lysosomal glucocerebrosidase.
The pharmaceutical application of the deoxynojirimycin analogues according to the invention and will be in post-inflammatory hyperpigmentation and skin inflammatory conditions. There is strong evidence that when administered systemically these deoxynojirimycin analogues have strong anti-inflammatory activity in vivo.

[1] = target: T3, lysosomal alfa-glucosidase (Homo sapiens, UniProt P10253); assay: In vitro inhibition of lysosomal alfa-glucosidase (4-MU substrate, purified enzyme from spleen); format: biochemical; details: Table 3, read-out: Apparent in vitro IC50 value, a-Glucosidase
T3 construct: measured with appropriate 4-MU substrates using purified enzymes from spleen; from tissue; host or cells: spleen

[2] = system: glycosphingolipid synthesis; details: 100 mg TID, Gaucher patients; cited from earlier work

With `OC[C@@H]1[C@@H](O)[C@H](O)[C@@H](O)CN1CCCCCOCC12CC3CC(CC(C3)C1)C2` [N-(5-adamantane-1-yl-methoxy-pentyl)deoxynojirimycin, reference compound] the Metabolism (Metabolism) was “metabolically inert”, the Bioavailability (Bioavailability) was “highly bioavailable” and the IC50 (Maltase) was greater than 25 µM. The Cellular toxicity (Cellular toxicity) was “no intrinsic cellular toxicity”.

`OC[C@@H]1[C@H](O)[C@H](O)[C@H](O)CN1CCCCCOCC12CC3CC(CC(C3)C1)C2` [N-(adamantane-1-yl-methoxypentyl)-L-ido-deoxynojirimycin] gave an IC50 (b-Galactosidase) greater than 100 µM, an IC50 (Hexosaminidase) greater than 100 µM and an IC50 (A-Galactosidase) greater than 100 µM. For the same compound, the “Pigmentation of MEB4 culture” value (MEB4 culture) was “loss of pigmentation”, the Bioavailability (Bioavailability) was “well bioavailable” and the IC50 (Maltase) was greater than 100 µM. The “Pigmentation / melanin production in melanocytes” value (human melanocytes) was “reduce melanin production”, the “Pigmentation / melanin production in melanocytes” value (human melanocytes; listed as ido-N-(5-adamantane-1-yl-methoxy-pentyl)deoxynojirimycin) was “significant decrease in pigmentation” and the Cellular toxicity (Cellular toxicity) was “no cellular toxicity”.

In the case of `CCCCN1C[C@H](O)[C@@H](O)[C@H](O)[C@H]1CO` [N-butyl-deoxynojirimycin, reference compound], the IC50 [1] is reported as 800 nM, the IC50 (b-Galactosidase) is reported as greater than 100 µM and the IC50 (Hexosaminidase) is reported as greater than 100 µM. For the same compound, the “Inhibition of glycosphingolipid synthesis” value [2] was 20-30%.
